Laboratory results published in ChEMBL document CHEMBL6092221, “Discovery of a Novel Macrocyclic Noncovalent CDK7 Inhibitor for Cancer Therapy” (J Med Chem, 2024).

Columns and labels:
[1] = Cmax in human OVCAR-3 cells xenografted in female Balb/c nude mouse plasma at 20 mg/kg, po administered once daily; assay type: ADME, organism-based
Cytochrome P450 2D6 = Cytochrome P450 2D6 (Homo sapiens, UniProt P10635); assay: Inhibition of CYP2D6 (unknown origin); assay type: ADME
[2] = Cmax in Sprague-Dawley rat at 300 mg/kg, po; assay type: ADME, organism-based; conditions: in vivo
[3] = Clearance in female Balb/c nude mouse at 1 mg/kg, iv; assay type: ADME, organism-based; conditions: in vivo
[4] = Cmax in human OVCAR-3 cells xenografted in female Balb/c nude mouse plasma at 10 mg/kg, po administered once daily; assay type: ADME, organism-based
[5] = AUC(0 to t) in human HCC70 cells xenografted in female nu/nu mouse plasma at 3 mg/kg, po administered once daily; assay type: ADME, organism-based
[6] = Cmax in dog at 2 mg/kg, po; assay type: ADME, organism-based, Canis lupus familiaris; conditions: in vivo
[7] = biological target: Serine/threonine-protein kinase D1 (Homo sapiens, UniProt Q15139); assay: Inhibition of PRKD1 (unknown origin)
[8] = Drug concentration in rat plasma at 5 mg/kg, po measured after 8 hrs; assay type: ADME, organism-based
[9] = Half life in human OVCAR-3 cells xenografted in female Balb/c nude mouse plasma at 5 mg/kg, po administered once daily; assay type: ADME, organism-based
[10] = Oral bioavailability in rat at 5 mg/kg; assay type: ADME, organism-based; conditions: in vivo
[11] = AUC (0 to t) in human OVCAR-3 cells xenografted in female Balb/c nude mouse plasma at 5 mg/kg, po administered once daily; assay type: ADME, organism-based
[12] = Drug concentration in rat small intestine at 5 mg/kg, po measured after 0.5 hrs; assay type: ADME, organism-based; conditions: read-out: Ct
OVCAR-3 [13] = assay: cells; conditions: Homo sapiens, OVCAR-3, 72 h
Description: Antiproliferative activity against human OVCAR-3 cells assessed as inhibition of cell proliferation incubated for 72 hrs by celltiter-glo assay

[14] = Half life in female Balb/c nude mouse at 5 mg/kg, po; assay type: ADME, organism-based; conditions: in vivo
[15] = Drug concentration in rat small intestine at 5 mg/kg, po measured after 2 hrs; assay type: ADME, organism-based; conditions: read-out: Ct
HCC70 [16] = assay: Antitumor activity against human HCC70 cells xenografted in female nu/nu mouse assessed as tumor growth inhibition at 10 mg/kg, po administered once daily and measured for 4 weeks; assay type: functional; conditions: HCC70, 672 h, read-out: TGI
[17] = Plasma stability in human assessed as half life; assay type: ADME, cell-free
[18] = Metabolic stability in rat liver microsomes assessed as intrinsic clearance; assay type: ADME, Microsome; conditions: read-out: CLH
CDK18/Cyclin Y = CDK18/Cyclin Y (Homo sapiens, UniProt Q07002+Q8ND76); assay: Inhibition of CDK18/Cyclin Y (unknown origin); assay type: protein-complex assay
[19] = Half life in human OVCAR-3 cells xenografted in female Balb/c nude mouse plasma at 20 mg/kg, po administered once daily; assay type: ADME, organism-based
[20] = Half life in rat at 1 mg/kg, iv; assay type: ADME, organism-based; conditions: in vivo
[21] = Cmax in Sprague-Dawley rat at 100 mg/kg, po; assay type: ADME, organism-based; conditions: in vivo
[22] = biological target: Homeodomain-interacting protein kinase 4 (Homo sapiens, UniProt Q8NE63); assay: Inhibition of HIPK4 (unknown origin)
[23] = AUC(0 to t) in mouse at 5 mg/kg, po; assay type: ADME, organism-based; conditions: in vivo
[24] = Clearance in rat at 1 mg/kg, iv; assay type: ADME, organism-based; conditions: in vivo
[25] = Permeability in human Caco-2 cells; assay type: ADME, cell-based; conditions: read-out: permeability
[26] = biological target: Homeodomain-interacting protein kinase 4 (Homo sapiens) (UniProt Q8NE63); assay: Inhibition of HIPK4 (unknown origin) at 200 nM relative to control; values are per cent of control
[27] = Volume of distribution at steady state in dog at 0.2 mg/kg, iv; assay type: ADME, organism-based, Canis lupus familiaris; conditions: in vivo, read-out: Vdss
[28] = AUC(0 to t) in rat at 1 mg/kg, iv; assay type: ADME, organism-based; conditions: in vivo
[29] = Half life in dog at 0.2 mg/kg, iv; assay type: ADME, organism-based, Canis lupus familiaris; conditions: in vivo
[30] = AUC (0 to t) in human OVCAR-3 cells xenografted in female Balb/c nude mouse plasma at 10 mg/kg, po administered once daily; assay type: ADME, organism-based
[31] = Drug concentration in rat small intestine at 5 mg/kg, po measured after 8 hrs; assay type: ADME, organism-based; conditions: read-out: Ct
HCC70 [32] = assay: Antitumor activity against human HCC70 cells xenografted in female nu/nu mouse assessed as tumor growth inhibition at 1 mg/kg, po administered once daily and measured for 4 weeks; assay type: functional; conditions: HCC70, 672 h, read-out: TGI
[33] = Half life in dog at 2 mg/kg, po; assay type: ADME, organism-based, Canis lupus familiaris; conditions: in vivo
[34] = biological target: Ribosomal protein S6 kinase alpha-3 (Homo sapiens, UniProt P51812); assay: Inhibition of RSK2 (unknown origin)
[35] = AUC (0 to t) in human OVCAR-3 cells xenografted in female Balb/c nude mouse plasma at 2 mg/kg, po administered once daily; assay type: ADME, organism-based
[36] = biological target: Mitogen-activated protein kinase 15 (Homo sapiens) (UniProt Q8TD08); assay: Inhibition of Erk8 (unknown origin) at 200 nM relative to control; values are per cent of control
[37] = Cmax in human HCC70 cells xenografted in female nu/nu mouse plasma at 10 mg/kg, po administered once daily; assay type: ADME, organism-based
[38] = biological target: Serine/threonine-protein kinase D1 (Homo sapiens) (UniProt Q15139); assay: Inhibition of PRKD1 (unknown origin) at 200 nM relative to control; values are per cent of control
[39] = Half life in human HCC70 cells xenografted in female nu/nu mouse plasma at 1 mg/kg, po administered once daily; assay type: ADME, organism-based
Cytochrome P450 2C19 = Cytochrome P450 2C19 (Homo sapiens, UniProt P33261); assay: Inhibition of CYP2C19 (unknown origin); assay type: ADME
Cytochrome P450 1A2 = Cytochrome P450 1A2 (Homo sapiens, UniProt P05177); assay: Inhibition of CYP1A2 (unknown origin); assay type: ADME
[40] = biological target: Serine/threonine-protein kinase D2 (Homo sapiens, UniProt Q9BZL6); assay: Inhibition of PRKD2 (unknown origin)
[41] = Metabolic stability in human liver microsomes assessed as intrinsic clearance; assay type: ADME, Microsome; conditions: read-out: CLH
[42] = Toxicity in female nu/nu mouse xenografted with human HCC70 cells assessed as body weight loss at 1 to 10 mg/kg, po administered once daily and measured for 4 weeks; assay type: organism-based; conditions: in vivo, 672 h, dose 1-10 mg/kg
[43] = biological target: Cyclin-dependent kinase 14/Cyclin-Y (Homo sapiens, UniProt O94921); assay: Inhibition of CDK14/Cyclin Y (unknown origin); assay type: protein-complex assay
OVCAR-3 [44] = assay: Antitumor activity against human OVCAR-3 cells xenografted in female Balb/c nude mouse assessed as tumor growth inhibition at 20 mg/kg, po administered once daily and measured on day 22; assay type: functional; conditions: OVCAR-3, 528 h, time 22 day, read-out: TGI
[45] = Drug concentration in rat plasma at 5 mg/kg, po measured after 2 hrs; assay type: ADME, organism-based
OVCAR-3 [46] = assay: Antitumor activity against human OVCAR-3 cells xenografted in female Balb/c nude mouse assessed as tumor growth inhibition at 2 mg/kg, po administered once daily and measured on day 22; assay type: functional; conditions: OVCAR-3, 528 h, time 22 day, read-out: TGI

CDK18/Cyclin Y, sequence (Q07002 whole entry): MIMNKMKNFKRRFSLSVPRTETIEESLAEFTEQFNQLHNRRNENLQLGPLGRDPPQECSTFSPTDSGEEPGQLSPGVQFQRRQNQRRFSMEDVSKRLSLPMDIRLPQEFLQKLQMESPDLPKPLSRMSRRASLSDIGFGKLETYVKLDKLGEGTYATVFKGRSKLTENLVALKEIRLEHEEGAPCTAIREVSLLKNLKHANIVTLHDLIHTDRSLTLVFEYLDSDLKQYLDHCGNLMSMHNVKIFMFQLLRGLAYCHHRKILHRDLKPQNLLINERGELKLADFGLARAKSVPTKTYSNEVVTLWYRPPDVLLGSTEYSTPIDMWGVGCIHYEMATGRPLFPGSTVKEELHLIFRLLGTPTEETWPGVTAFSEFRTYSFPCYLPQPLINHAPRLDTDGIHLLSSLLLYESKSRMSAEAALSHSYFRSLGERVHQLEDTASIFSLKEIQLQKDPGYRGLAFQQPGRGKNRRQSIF
CDK18/Cyclin Y, sequence (Q8ND76 whole entry): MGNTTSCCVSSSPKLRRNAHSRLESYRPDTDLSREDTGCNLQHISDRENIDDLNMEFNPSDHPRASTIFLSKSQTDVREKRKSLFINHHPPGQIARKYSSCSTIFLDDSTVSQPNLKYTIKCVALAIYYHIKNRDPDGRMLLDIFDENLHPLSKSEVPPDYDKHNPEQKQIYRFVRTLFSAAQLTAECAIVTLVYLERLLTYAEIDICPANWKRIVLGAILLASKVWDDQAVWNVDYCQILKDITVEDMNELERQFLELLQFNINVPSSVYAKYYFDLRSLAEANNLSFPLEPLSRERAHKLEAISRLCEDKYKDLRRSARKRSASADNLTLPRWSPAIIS
Cytochrome P450 1A2, sequence (P05177 whole entry): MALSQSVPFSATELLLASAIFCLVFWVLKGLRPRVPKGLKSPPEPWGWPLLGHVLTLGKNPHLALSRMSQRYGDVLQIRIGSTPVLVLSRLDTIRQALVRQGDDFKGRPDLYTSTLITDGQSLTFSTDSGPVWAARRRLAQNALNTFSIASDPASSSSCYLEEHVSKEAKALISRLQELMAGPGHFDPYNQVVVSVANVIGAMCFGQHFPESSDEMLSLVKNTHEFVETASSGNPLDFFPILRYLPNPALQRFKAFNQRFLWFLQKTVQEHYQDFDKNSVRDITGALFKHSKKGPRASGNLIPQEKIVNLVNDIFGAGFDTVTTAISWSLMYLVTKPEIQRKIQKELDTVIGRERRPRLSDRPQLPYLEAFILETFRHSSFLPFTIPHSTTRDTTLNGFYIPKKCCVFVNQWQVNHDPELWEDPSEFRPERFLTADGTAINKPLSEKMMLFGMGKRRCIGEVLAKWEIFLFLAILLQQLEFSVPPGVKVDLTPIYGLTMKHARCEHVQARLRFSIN
Cytochrome P450 2C19, sequence (P33261 whole entry): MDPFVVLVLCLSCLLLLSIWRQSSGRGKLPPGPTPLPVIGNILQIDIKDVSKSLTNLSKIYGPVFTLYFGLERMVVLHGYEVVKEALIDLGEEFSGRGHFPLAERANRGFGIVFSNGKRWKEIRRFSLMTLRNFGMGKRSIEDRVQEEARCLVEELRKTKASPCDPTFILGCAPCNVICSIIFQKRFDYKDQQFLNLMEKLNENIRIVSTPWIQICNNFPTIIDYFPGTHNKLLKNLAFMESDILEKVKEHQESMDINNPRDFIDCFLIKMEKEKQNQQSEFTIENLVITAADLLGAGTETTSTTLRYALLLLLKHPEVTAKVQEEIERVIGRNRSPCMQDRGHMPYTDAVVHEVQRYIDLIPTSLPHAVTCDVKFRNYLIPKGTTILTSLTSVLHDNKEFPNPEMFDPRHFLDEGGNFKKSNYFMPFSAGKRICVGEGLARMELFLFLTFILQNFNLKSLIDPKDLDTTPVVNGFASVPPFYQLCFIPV
Ribosomal protein S6 kinase alpha-3, sequence (P51812 whole entry): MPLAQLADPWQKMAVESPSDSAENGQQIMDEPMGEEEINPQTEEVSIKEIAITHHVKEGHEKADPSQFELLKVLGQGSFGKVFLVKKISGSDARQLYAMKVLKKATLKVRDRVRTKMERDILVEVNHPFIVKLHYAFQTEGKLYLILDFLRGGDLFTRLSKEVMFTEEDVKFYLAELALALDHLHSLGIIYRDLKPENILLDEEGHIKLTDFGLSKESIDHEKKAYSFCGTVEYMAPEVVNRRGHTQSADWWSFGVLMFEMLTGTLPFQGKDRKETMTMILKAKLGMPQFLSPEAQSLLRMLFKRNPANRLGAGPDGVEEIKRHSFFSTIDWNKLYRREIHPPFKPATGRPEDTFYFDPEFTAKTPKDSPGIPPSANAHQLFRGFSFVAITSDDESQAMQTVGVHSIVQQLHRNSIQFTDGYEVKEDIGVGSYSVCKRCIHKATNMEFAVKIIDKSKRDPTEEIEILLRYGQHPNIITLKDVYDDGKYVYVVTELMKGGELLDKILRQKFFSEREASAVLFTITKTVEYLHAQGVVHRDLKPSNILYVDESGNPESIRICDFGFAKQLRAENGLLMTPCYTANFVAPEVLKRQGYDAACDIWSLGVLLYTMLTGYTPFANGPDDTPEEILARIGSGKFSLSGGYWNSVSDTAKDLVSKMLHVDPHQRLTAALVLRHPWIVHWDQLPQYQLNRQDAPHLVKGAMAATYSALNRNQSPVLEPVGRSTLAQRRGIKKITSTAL
Cytochrome P450 2D6, sequence (P10635 whole entry): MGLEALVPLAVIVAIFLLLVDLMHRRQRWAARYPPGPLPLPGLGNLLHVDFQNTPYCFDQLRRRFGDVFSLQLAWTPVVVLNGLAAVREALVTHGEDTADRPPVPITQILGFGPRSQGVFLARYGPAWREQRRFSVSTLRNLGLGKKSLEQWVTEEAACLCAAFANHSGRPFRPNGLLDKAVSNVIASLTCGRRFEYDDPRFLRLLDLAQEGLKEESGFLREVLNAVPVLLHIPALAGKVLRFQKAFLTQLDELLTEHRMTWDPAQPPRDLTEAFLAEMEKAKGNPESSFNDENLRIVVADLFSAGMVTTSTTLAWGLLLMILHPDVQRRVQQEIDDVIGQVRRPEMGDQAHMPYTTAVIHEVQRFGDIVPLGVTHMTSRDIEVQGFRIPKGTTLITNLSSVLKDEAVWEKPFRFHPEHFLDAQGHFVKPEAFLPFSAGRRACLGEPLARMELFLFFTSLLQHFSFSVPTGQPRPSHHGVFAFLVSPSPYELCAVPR
Mitogen-activated protein kinase 15 (Homo sapiens), sequence (Q8TD08 whole entry): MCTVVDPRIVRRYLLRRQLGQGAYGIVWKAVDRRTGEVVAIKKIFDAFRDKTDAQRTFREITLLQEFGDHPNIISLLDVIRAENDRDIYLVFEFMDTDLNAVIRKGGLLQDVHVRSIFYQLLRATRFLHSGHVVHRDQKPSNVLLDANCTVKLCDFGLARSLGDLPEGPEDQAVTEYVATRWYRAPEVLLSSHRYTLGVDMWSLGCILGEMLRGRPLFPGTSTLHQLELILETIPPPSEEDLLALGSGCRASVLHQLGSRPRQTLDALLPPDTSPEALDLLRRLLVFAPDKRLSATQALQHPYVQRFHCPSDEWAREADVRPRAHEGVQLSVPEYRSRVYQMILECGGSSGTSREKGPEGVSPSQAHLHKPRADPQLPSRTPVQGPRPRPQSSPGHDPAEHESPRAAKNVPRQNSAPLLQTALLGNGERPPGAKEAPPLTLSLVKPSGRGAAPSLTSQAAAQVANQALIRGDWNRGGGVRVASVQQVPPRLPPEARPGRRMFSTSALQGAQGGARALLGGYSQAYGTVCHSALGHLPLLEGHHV
Cyclin-dependent kinase 14/Cyclin-Y, sequence (O94921 whole entry): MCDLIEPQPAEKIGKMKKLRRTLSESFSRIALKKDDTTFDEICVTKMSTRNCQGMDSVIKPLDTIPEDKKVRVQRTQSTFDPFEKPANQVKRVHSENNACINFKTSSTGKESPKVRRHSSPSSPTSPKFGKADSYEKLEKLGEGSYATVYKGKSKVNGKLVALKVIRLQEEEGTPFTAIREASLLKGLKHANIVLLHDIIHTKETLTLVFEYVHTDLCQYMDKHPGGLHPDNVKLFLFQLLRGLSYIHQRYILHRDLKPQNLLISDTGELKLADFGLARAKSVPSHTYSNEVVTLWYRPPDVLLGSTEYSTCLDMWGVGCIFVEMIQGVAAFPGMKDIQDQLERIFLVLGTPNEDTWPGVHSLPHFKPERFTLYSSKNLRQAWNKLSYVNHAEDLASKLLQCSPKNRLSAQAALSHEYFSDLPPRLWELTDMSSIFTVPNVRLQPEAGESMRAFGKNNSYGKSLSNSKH
Cyclin-dependent kinase 14/Cyclin-Y, sequence (Q8ND76 whole entry, further chain): as the sequence (Q8ND76 whole entry) above
Serine/threonine-protein kinase D2, sequence (Q9BZL6 whole entry): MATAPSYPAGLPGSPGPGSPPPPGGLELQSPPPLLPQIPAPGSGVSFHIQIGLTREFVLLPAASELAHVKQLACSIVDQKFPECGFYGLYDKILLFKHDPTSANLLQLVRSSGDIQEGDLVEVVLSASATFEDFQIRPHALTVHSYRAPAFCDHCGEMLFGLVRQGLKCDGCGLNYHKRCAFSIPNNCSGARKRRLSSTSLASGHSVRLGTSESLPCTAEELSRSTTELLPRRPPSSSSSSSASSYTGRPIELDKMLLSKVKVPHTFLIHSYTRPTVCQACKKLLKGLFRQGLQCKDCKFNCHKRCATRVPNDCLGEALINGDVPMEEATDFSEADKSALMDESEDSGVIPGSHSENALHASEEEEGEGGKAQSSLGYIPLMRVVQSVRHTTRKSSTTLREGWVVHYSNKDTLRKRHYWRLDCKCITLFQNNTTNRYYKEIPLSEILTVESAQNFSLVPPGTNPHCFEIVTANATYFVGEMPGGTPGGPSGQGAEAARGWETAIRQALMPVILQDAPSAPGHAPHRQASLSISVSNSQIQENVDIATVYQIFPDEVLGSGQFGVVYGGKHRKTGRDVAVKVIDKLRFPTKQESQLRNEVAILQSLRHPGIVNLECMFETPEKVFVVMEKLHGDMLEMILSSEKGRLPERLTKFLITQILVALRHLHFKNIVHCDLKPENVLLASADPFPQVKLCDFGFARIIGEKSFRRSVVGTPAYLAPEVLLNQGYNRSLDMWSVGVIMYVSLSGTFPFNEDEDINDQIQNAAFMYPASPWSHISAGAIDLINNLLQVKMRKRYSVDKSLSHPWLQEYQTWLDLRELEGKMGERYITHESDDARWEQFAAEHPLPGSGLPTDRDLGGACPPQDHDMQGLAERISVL

Cmax [1]: 1690 ng/mL | IC50 (Cytochrome P450 2D6): 7000 nM | Cmax [2]: 3310 ng/mL | clearance [3]: 52.6 mL/min/kg | Cmax [4]: 580 ng/mL | Cmax [6]: 6620 ng/mL | IC50 [7]: 23.7 nM | concentration at 8 h [8]: 3.5 ng/mL | half-life [9]: 2.8 h | bioavailability [10]: 29% | AUC(0-t) [11]: 694 ng·h/mL | concentration at 0.5 h [12]: 2240 ng/g | IC50 (OVCAR-3 [13]): 57 nM | half-life [14]: 4.3 h | concentration at 2 h [15]: 3230 ng/g | half-life [17]: > 4.82 h | CLint scaled [18]: 44.9 mL/min/kg | IC50 (CDK18/Cyclin Y): 4.2 nM | half-life [19]: 3.4 h | half-life [20]: 1.2 h | Cmax [21]: 3830 ng/mL | IC50 [22]: 55 nM | AUC(0-t) [23]: 938 ng·h/mL | clearance [24]: 39.9 mL/min/kg | Papp [25]: 3.69 ×10⁻⁶ cm/s | residual activity [26]: 9.4% | Vd [27]: 0.24 L/kg | AUC(0-t) [28]: 415 ng·h/mL | half-life [29]: 3.4 h | AUC(0-t) [30]: 1720 ng·h/mL | concentration at 8 h [31]: 67 ng/g | half-life [33]: 4.4 h | IC50 [34]: 291 nM | AUC(0-t) [35]: 329 ng·h/mL | residual activity [38]: 19% | IC50 (Cytochrome P450 2C19): 30900 nM | IC50 (Cytochrome P450 1A2): > 50000 nM | IC50 [40]: 45.2 nM | CLint scaled [41]: 19.6 mL/min/kg | IC50 [43]: 16.1 nM | concentration at 2 h [45]: 68.8 ng/mL
Compound: CN1CC(F)(F)CCN(C)[C@H]2CC[C@@H](C2)Nc2ncc(C(F)(F)F)c(n2)-c2c[nH]c3c(P(C)(C)=O)c(ccc23)C1=O
AUC(0-t) [5]: 203 ng·h/mL | inhibition in vivo at 10 mg/kg (HCC70 [16]): 175% | inhibition in vivo at 1 mg/kg (HCC70 [32]): 35.5% | residual activity [36]: 0.85% | Cmax [37]: 401 ng/mL | half-life [39]: 2 h | Activity [42]: Non-toxic | inhibition in vivo at 20 mg/kg (OVCAR-3 [44]): 111% | inhibition in vivo at 2 mg/kg (OVCAR-3 [46]): 110%
